# According to patent US11420958B2, “Aryl and heteroaryl substituted indole compounds” (BRISTOL-MYERS SQUIBB COMPANY, priority 2017, dated 2022):
# Tests used:
# Type in all cases: cell-based
# [1] = molecular target: human TLR9 (Homo sapiens (Human), UniProt Q9NR96); assay: TLR9 inhibition reporter assay (HEK-Blue, SEAP); conditions: HEK-Blue cells overexpressing human TLR9, ODN2006 5 nM stimulation
# How it was run: (§1)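 Cells are treated with compound over a 0.05 nM–50 μM final range for 30 min at room temperature before agonist addition: gardiquimod at 7.5 μM for TLR7, R848 at 15.9 μM for TLR8, ODN2006 at 5 nM for TLR9. SEAP is measured after 22 h at 37 °C.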
# [2] = molecular target: human TLR8 (Homo sapiens (Human), UniProt Q9NR97); assay: TLR8 inhibition reporter assay (HEK-Blue, SEAP); conditions: HEK-Blue cells overexpressing human TLR8, R848 15.9 μM stimulation
# How it was run: as §1
# [3] = molecular target: human TLR7 (Homo sapiens (Human), UniProt Q9NYK1); assay: TLR7 inhibition reporter assay (HEK-Blue, SEAP); conditions: HEK-Blue cells overexpressing human TLR7, gardiquimod 7.5 μM stimulation
# How it was run: as §1
# Sequence of human TLR8 (Q9NR97 27-1041): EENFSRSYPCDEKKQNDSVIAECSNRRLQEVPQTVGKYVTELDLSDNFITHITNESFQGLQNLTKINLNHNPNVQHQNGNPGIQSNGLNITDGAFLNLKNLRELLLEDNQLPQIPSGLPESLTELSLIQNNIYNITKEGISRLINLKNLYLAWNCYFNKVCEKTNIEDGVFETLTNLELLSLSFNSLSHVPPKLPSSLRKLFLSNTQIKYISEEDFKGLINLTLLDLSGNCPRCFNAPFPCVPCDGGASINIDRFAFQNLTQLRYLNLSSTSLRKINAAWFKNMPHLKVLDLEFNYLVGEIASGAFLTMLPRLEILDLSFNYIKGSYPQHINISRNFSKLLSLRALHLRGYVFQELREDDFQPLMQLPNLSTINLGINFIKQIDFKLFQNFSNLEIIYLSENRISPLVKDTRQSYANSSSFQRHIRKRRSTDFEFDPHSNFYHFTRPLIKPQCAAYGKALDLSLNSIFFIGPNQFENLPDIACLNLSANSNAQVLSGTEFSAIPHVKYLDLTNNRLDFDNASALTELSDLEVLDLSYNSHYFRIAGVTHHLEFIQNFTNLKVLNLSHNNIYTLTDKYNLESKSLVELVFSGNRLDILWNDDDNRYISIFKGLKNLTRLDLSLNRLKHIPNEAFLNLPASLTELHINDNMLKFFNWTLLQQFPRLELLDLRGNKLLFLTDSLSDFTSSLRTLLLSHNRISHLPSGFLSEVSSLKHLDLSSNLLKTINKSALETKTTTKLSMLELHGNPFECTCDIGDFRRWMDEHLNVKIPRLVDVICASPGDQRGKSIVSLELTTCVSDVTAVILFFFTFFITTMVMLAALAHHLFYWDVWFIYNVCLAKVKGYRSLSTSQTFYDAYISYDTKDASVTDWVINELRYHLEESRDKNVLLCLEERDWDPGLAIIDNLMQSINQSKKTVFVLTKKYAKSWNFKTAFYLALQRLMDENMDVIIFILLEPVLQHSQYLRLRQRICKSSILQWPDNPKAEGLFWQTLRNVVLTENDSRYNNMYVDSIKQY
# Sequence of human TLR9 (Q9NR96 26-1032): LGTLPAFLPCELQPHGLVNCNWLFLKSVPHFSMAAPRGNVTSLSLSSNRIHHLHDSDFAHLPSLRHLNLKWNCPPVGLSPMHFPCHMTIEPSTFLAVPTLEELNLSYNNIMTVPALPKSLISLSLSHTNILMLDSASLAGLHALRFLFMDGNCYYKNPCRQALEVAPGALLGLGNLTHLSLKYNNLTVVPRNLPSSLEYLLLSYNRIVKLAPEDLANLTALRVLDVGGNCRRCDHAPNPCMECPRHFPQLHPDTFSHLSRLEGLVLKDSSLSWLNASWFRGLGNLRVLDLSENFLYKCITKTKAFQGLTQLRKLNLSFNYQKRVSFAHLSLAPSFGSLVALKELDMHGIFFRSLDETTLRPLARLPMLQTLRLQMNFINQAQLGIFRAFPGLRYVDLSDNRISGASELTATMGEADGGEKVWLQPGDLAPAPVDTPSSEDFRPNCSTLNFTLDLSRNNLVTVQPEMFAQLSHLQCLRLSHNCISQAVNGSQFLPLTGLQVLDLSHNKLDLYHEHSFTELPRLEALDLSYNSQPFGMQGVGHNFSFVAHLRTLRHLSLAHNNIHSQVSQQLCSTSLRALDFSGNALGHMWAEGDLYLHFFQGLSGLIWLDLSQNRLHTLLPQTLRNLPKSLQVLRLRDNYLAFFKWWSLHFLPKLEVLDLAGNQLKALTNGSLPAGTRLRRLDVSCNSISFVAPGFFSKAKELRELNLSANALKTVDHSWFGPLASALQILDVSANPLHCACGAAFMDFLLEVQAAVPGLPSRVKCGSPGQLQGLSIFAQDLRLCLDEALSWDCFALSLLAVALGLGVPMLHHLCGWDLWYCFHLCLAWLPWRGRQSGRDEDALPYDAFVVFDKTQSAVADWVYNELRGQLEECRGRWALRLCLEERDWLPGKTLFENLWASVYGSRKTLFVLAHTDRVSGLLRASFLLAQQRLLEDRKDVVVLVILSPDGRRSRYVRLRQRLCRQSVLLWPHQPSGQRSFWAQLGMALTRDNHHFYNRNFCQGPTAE
# Sequence of human TLR7 (Q9NYK1 27-1049): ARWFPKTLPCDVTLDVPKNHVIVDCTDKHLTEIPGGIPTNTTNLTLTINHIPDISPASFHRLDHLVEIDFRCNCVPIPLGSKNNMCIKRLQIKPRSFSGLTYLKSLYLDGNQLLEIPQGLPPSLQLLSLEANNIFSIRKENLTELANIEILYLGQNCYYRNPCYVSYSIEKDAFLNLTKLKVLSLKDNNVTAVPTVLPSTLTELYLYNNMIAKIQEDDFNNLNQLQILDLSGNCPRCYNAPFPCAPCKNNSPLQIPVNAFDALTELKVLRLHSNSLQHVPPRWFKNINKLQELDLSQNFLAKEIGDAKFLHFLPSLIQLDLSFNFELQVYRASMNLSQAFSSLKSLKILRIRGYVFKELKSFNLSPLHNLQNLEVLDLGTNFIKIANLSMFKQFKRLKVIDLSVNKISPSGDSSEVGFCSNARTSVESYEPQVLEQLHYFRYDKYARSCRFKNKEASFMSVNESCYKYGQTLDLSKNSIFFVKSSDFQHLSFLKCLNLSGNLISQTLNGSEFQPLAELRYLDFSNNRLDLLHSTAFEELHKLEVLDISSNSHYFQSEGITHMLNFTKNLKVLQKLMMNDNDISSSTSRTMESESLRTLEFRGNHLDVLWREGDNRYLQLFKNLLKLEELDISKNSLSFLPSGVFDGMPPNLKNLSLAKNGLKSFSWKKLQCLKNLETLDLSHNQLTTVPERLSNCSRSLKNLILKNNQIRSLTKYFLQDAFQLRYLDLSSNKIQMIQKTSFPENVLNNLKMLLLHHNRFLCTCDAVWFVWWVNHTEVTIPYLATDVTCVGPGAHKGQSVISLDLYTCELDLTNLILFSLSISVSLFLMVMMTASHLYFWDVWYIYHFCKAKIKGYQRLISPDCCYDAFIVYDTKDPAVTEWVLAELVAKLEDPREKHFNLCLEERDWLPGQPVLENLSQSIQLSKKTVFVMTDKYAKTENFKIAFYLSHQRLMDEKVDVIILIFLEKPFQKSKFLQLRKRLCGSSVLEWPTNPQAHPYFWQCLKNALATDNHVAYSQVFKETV
SMILES,IC50 [1] [nM],IC50 [2] [nM],IC50 [3] [nM]
"COc1ccc(-c2[nH]c3ccc(-c4nnc(C5CCN(C6CCN(C)CC6)CC5)o4)cc3c2C(C)C)cc1OC [Example 21, 2-(2-(3,4-dimethoxyphenyl)-3-isopropyl-1H-indol-5-yl)-5-(1′-methyl-[1,4′-bipiperidin]-4-yl)-1,3,4-oxadiazole]",626,20,60
"Cc1cc(-c2[nH]c3ccc(-c4nnc(C5CCNCC5)o4)cc3c2C(C)C)ccn1 [Example 66, 2-(3-isopropyl-2-(2-methylpyridin-4-yl)-1H-indol-5-yl)-5-(piperidin-4-yl)-1,3,4-oxadiazole]",2310,38,53
"Cc1cc(-c2[nH]c3ccc(-c4nnc(CC(C)(C)N)o4)cc3c2C(C)C)ccn1 [Example 265, 1-(5-(3-isopropyl-2-(2-methylpyridin-4-yl)-1H-indol-5-yl)-1,3,4-oxadiazol-2-yl)-2-methylpropan-2-amine]",561,3.3,21
"CC(C)c1c(-c2ccnc3[nH]ncc23)[nH]c2ccc(-c3nnc(C4CCCN(C)C4)o3)cc12 (stereo not drawn) [Example 168, 2-(3-isopropyl-2-(1H-pyrazolo[3,4-b]pyridin-4-yl)-1H-indol-5-yl)-5-(1-methylpiperidin-3-yl)-1,3,4-oxadiazole]",1080,1.9,81
"COc1ccc(-c2[nH]c3ccc(-c4cccc(C(=O)N[C@H]5CC[C@H](C(C)(C)O)CC5)c4)cc3c2C(C)C)cc1OC [Example 7, 3-(2-(3,4-dimethoxyphenyl)-3-isopropyl-1H-indol-5-yl)-N-((1r,4r)-4-(2-hydroxypropan-2-yl)cyclohexyl)benzamide]",> 50000,19,1790
"Cc1cc(-c2[nH]c3ccc(-c4nnc(C(=O)NC5CCNC5)s4)cc3c2C(C)C)ccn1 (stereo not drawn) [Example 137, 5-(3-isopropyl-2-(2-methylpyridin-4-yl)-1H-indol-5-yl)-N-(pyrrolidin-3-yl)-1,3,4-thiadiazole-2-carboxamide]",705,2.7,29
"COCCNCc1nnc(-c2ccc3[nH]c(-c4ccc(OC)c(OC)c4)c(C(C)C)c3c2)o1 [Example 109, N-((5-(2-(3,4-dimethoxyphenyl)-3-isopropyl-1H-indol-5-yl)-1,3,4-oxadiazol-2-yl)methyl)-2-methoxyethan-1-amine]",> 50000,301,4160
"CCc1c(-c2ccc(OC)c(OC)c2)[nH]c2ccc(-c3nnc(C(N)=O)o3)cc12 [Example 41, 5-(2-(3,4-dimethoxyphenyl)-3-ethyl-1H-indol-5-yl)-1,3,4-oxadiazole-2-carboxamide]",> 50000,173,749
"CC(C)c1c(-c2ccnc3[nH]ncc23)[nH]c2ccc(-c3nc(C(=O)N4CCCN(C)CC4)co3)cc12 [Example 233, (2-(3-isopropyl-2-(1H-pyrazolo[3,4-b]pyridin-4-yl)-1H-indol-5-yl)oxazol-4-yl)(4-methyl-1,4-diazepan-1-yl)methanone]",2080,2.5,195
"COc1ccc(-c2[nH]c3ccc(-c4nnc(C5CCNC5)o4)cc3c2C(C)C)cc1OC (stereo not drawn) [Example 48, 2-(2-(3,4-dimethoxyphenyl)-3-isopropyl-1H-indol-5-yl)-5-(pyrrolidin-3-yl)-1,3,4-oxadiazole]",2330,11,34
"CC(C)c1c(-c2ccnc3[nH]ncc23)[nH]c2ccc(-c3nnc(CNCC#N)o3)cc12 [Example 150, 2-(((5-(3-isopropyl-2-(1H-pyrazolo[3,4-b]pyridin-4-yl)-1H-indol-5-yl)-1,3,4-oxadiazol-2-yl)methyl)amino)acetonitrile]",> 50000,378,2240
"CNCc1nnc(-c2ccc3[nH]c(-c4ccnc5n[nH]cc45)c(C(C)C)c3c2)o1 [Example 132, 1-(5-(3-isopropyl-2-(2H-pyrazolo[3,4-b]pyridin-4-yl)-1H-indol-5-yl)-1,3,4-oxadiazol-2-yl)-N-methylmethanamine]",47400,44,2680
"COc1ccc(-c2[nH]c3ccc(-c4nc(C(=O)N5CC6CNCC6C5)co4)cc3c2C(C)C)cc1OC (stereo not drawn) [Example 127, (2-(2-(3,4-dimethoxyphenyl)-3-isopropyl-1H-indol-5-yl)oxazol-4-yl)(hexahydropyrrolo[3,4-c]pyrrol-2(1H)-yl)methanone]",1580,6.5,21
"Cc1cc(-c2[nH]c3ccc(-c4nnc([C@H]5CSCN5)o4)cc3c2C(C)C)ccn1 [Example 82, (S)-2-(3-isopropyl-2-(2-methylpyridin-4-yl)-1H-indol-5-yl)-5-(thiazolidin-4-yl)-1,3,4-oxadiazole]",> 50000,96,596
"Cc1cc(-c2[nH]c3ccc(-c4nnc(C(=O)NCCN(C)C)s4)cc3c2C(C)C)ccn1 [Example 133, N-(2-(dimethylamino)ethyl)-5-(3-isopropyl-2-(2-methylpyridin-4-yl)-1H-indol-5-yl)-1,3,4-thiadiazole-2-carboxamide]",441,2,18
"COc1ccc(-c2[nH]c3ccc(-c4ccnc(C(=O)N5CCCN(C)CC5)c4)cc3c2C(C)C)cc1OC [Example 10, (4-(2-(3,4-dimethoxyphenyl)-3-isopropyl-1H-indol-5-yl)pyridin-2-yl)(4-methyl-1,4-diazepan-1-yl)methanone]",673,6,35
"CCN(CC)C(=O)C1CCCN(C(=O)c2nnc(-c3ccc4[nH]c(-c5ccc(OC)c(OC)c5)c(C(C)C)c4c3)o2)C1 (stereo not drawn) [Example 89, 1-(5-(2-(3,4-dimethoxyphenyl)-3-isopropyl-1H-indol-5-yl)-1,3,4-oxadiazole-2-carbonyl)-N,N-diethylpiperidine-3-carboxamide]",9640,217,1490
"COc1ccc(-c2[nH]c3ccc(-c4nnc(C[C@@H]5CCCCN5)o4)cc3c2C(C)C)cc1OC [Example 50, (S)-2-(2-(3,4-dimethoxyphenyl)-3-isopropyl-1H-indol-5-yl)-5-(piperidin-2-ylmethyl)-1,3,4-oxadiazole]",1080,5.9,44

# Continued, values first:
IC50 [1] [nM],IC50 [2] [nM],IC50 [3] [nM],SMILES
24200,18,208,"CC(C)c1c(-c2ccnc3[nH]ncc23)[nH]c2ccc(-c3cccnc3)cc12 [Example 467, 4-(3-isopropyl-5-(pyridin-3-yl)-1H-indol-2-yl)-1H-pyrazolo[3,4-b]pyridine]"
205,1.4,4.4,"Cc1cc(-c2[nH]c3ccc(-c4nnc(C5CCCN(C(C)C)C5)[nH]4)cc3c2C(C)C)cc(C)n1 (stereo not drawn) [Example 357, 2-(2,6-dimethylpyridin-4-yl)-3-isopropyl-5-(5-(1-isopropylpiperidin-3-yl)-4H-1,2,4-triazol-3-yl)-1H-indole]"
633,2.4,36,"Cc1cc(-c2[nH]c3ccc(-c4nnc(C5CCCN(C(C)C)C5)o4)cc3c2C(C)C)ccn1 (stereo not drawn) [Example 312, 2-(3-isopropyl-2-(2-methylpyridin-4-yl)-1H-indol-5-yl)-5-(1-isopropylpiperidin-3-yl)-1,3,4-oxadiazole]"
432,3.6,5.2,"Cc1cc(-c2[nH]c3ccc(-c4ccc(N5CCN(C)CC5)nc4)cc3c2C(C)C)cc(C)n1 [Example 301, 2-(2,6-dimethylpyridin-4-yl)-3-isopropyl-5-(6-(4-methylpiperazin-1-yl)pyridin-3-yl)-1H-indole]"
15900,27,2220,"CCc1c(-c2ccnc(C)c2)[nH]c2ccc(-c3noc([C@H]4CCNC4)n3)cc12 [Example 455, (S)-3-(3-ethyl-2-(2-methylpyridin-4-yl)-1H-indol-5-yl)-5-(pyrrolidin-3-yl)-1,2,4-oxadiazole]"
7150,126,772,"CCc1c(-c2ccc(OC)c(OC)c2)[nH]c2ccc(-c3noc([C@@H](N)CCCN)n3)cc12 [Example 463, (S)-1-(3-(2-(3,4-dimethoxyphenyl)-3-ethyl-1H-indol-5-yl)-1,2,4-oxadiazol-5-yl)butane-1,4-diamine]"
1070,7.5,32,"COc1ccc(-c2[nH]c3ccc(-c4ccc(N5CCN(C)CC5)nc4)cc3c2C(C)C)cc1OC [Example 392, 2-(3,4-dimethoxyphenyl)-3-isopropyl-5-(6-(4-methylpiperazin-1-yl)pyridin-3-yl)-1H-indole]"
5890,30,181,"COc1ccc(-c2[nH]c3ccc(-c4ccc(NC5CCN(C(C)C)CC5)cc4)cc3c2C(C)C)cc1OC [Example 385, N-(4-(2-(3,4-dimethoxyphenyl)-3-isopropyl-1H-indol-5-yl)phenyl)-1-isopropylpiperidin-4-amine]"
> 50000,349,636,"COc1ccc(-c2[nH]c3ccc(-c4ccc(OC5CCN(CC(C)C)CC5)cc4)cc3c2C(C)C)cc1OC [Example 388, 2-(3,4-dimethoxyphenyl)-5-(4-((1-isobutylpiperidin-4-yl)oxy)phenyl)-3-isopropyl-1H-indole]"
19900,123,647,"CCc1c(-c2ccc(OC)c(OC)c2)[nH]c2ccc(-c3noc([C@@H](N)Cc4c[nH]cn4)n3)cc12 [Example 440, (S)-1-(3-(2-(3,4-dimethoxyphenyl)-3-ethyl-1H-indol-5-yl)-1,2,4-oxadiazol-5-yl)-2-(1H-imidazol-4-yl)ethan-1-amine]"
